Test results reported in ChEMBL document CHEMBL4806969, “Modulators of mas-related g-protein receptor x4 and related products and methods” (2020).
pIC50: −log10 of the molar value. The source made the active and inactive calls. The rule behind the calls is not given here.

Key:
[1] = molecular target: T1, Mas-related G-protein coupled receptor member X4 (Homo sapiens, UniProt Q96LA9); assay: Antagonist activity at human MRGPRX4 expressed in HEK cells incubated in dark for 1 hr at 37 degree C and then incubated for 30 mins at room temperature in presence of […] bilirubin by HTRF assay; type: functional, cell-based
T1 sequence (Q96LA9 whole entry): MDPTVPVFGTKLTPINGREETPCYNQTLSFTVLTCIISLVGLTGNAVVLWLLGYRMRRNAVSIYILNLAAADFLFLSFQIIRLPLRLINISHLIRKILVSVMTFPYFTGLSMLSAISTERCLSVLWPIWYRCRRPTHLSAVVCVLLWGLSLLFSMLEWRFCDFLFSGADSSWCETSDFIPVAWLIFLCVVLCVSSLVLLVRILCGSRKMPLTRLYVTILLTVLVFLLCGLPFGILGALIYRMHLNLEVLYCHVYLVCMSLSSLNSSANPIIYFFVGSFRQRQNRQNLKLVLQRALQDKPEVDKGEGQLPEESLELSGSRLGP

[2] = Half life in C57BL/6 mouse at 50 mg/kg, po measured upto 24 hrs by LC-MS/MS analysis; type: ADME, organism-based; conditions: in vivo
[3] = AUC in C57BL/6 mouse at 50 mg/kg, po measured upto 24 hrs by LC-MS/MS analysis; type: ADME, organism-based; design: route oral, dose 50 mg/kg, time <=24; conditions: in vivo
[4] = molecular target: T1, Mas-related G-protein coupled receptor member X4; assay: Antagonist activity at human MRGPRX4 expressed in HEK cells incubated in dark for 1 hr at 37 degree C and then incubated for 30 mins at room temperature in presence of 20 uM of deoxycholic acid by HTRF assay; type: functional, cell-based
[5] = molecular target: T1, Mas-related G-protein coupled receptor member X4; assay: Antagonist activity at human MRGPRX4 expressed in HEK cells incubated in dark for 1 hr at 37 degree C and then incubated for 30 mins at room temperature in presence of 50 uM of obeticholic acid by HTRF assay; type: functional, cell-based
[6] = molecular target: T1, Mas-related G-protein coupled receptor member X4; assay: Antagonist activity at human MRGPRX4 expressed in HEK cells incubated in dark for 1 hr at 37 degree C and then incubated for 30 mins at room temperature in presence of 100 uM of conjugated bilirubin by HTRF assay; type: functional, cell-based
[7] = molecular target: T1, Mas-related G-protein coupled receptor member X4; assay: Antagonist activity at human MRGPRX4 expressed in HEK cells incubated in dark for 1 hr at 37 degree C and then incubated for 30 mins at room temperature in presence of 10 uM of bilirubin by HTRF assay; type: functional, cell-based
[8] = Cmax in C57BL/6 mouse at 50 mg/kg, po measured upto 24 hrs by LC-MS/MS analysis; type: ADME, organism-based; design: route oral, dose 50 mg/kg, time <=24; conditions: in vivo
[9] = molecular target: T1, Mas-related G-protein coupled receptor member X4; assay: Agonist activity at human MRGPRX4 expressed in HEK cells using preincubated compound in light at room temperature for 24 hrs by HTRF assay; type: functional, cell-based
[10] = molecular target: T1, Mas-related G-protein coupled receptor member X4; assay: Agonist activity at human MRGPRX4 expressed in HEK cells using preincubated compound in blue light at room temperature for 24 hrs by HTRF assay; type: functional, cell-based
[11] = Stability of compound assessed as parent compound remaining after stored for 24 hrs in dark at room temperature by LC-MS/MS analysis; type: physicochemical
[12] = Stability of compound assessed as parent compound remaining after stored for 24 hrs in normal lab light condition at room temperature by LC-MS/MS analysis; type: physicochemical
[13] = molecular target: T1, Mas-related G-protein coupled receptor member X4; assay: Agonist activity at human MRGPRX4 expressed in HEK cells using preincubated compound in dark freezer condition for 24 hrs by HTRF assay; type: functional, cell-based; conditions: filed as agonist
[14] = molecular target: T1, Mas-related G-protein coupled receptor member X4; assay: Agonist activity at human MRGPRX4 expressed in HEK cells using preincubated compound in dark at room temperature for 24 hrs by HTRF assay; type: functional, cell-based
[15] = Stability of compound assessed as parent compound remaining after stored for 24 hrs in dark freezer condition by LC-MS/MS analysis; type: physicochemical; conditions: read-out: Stabilty
[16] = Stability of compound assessed as parent compound remaining after stored for 24 hrs in blue light condition at room temperature by LC-MS/MS analysis; type: physicochemical
[17] = molecular target: T1, Mas-related G-protein coupled receptor member X4; assay: Antagonist activity at human MRGPRX4 expressed in HEK cells incubated in dark for 1 hr at 37 degree C and then incubated for 30 mins at room temperature in presence of 50 uM of urobilin by HTRF assay; type: functional, cell-based

Row | SMILES | pIC50 [1] | half-life [2] | AUC at 24 h [3] | pIC50 [4] | pIC50 [5] | other results
1 | CCc1cc(COc2ccc(C(F)(F)F)cc2Cl)nc(C(=O)O)c1 | > 7.00 | 5.4 h | 4700 µM·h | 7.80 |  | 
2 | O=C(O)c1cccc(COc2ccc(Cl)cc2Cl)c1 | > 7.00 | 4.2 h | 376 µM·h | 6.89 |  | 
3 | O=C(O)c1cccc(COc2ccc(Cl)c(Cl)c2Cl)c1 | > 7.00 | 4 h | 219 µM·h | 7.62 |  | 
4 | Cc1cc(C(F)(F)F)ccc1OCc1cccc(C(=O)O)c1F | > 7.00 | 4.8 h | 1200 µM·h | 7.12 | 7.66 | pIC50 [6]: 7.92; pIC50 [7]: 7.77; Cmax [8]: 230 µM
5 | C=CC1=C(C)/C(=C/c2[nH]c(Cc3[nH]c(/C=C4\NC(=O)C(C)=C4C=C)c(C)c3CCC(=O)O)c(CCC(=O)O)c2C)NC1=O [BILIRUBIN] |  |  |  |  |  | Activity [9]: inactive; Activity [10]: inactive; Stabilty [11]: Unstable; Stabilty [12]: Unstable; Activity [13]: Active; Activity [14]: inactive; remaining at 24 h [15]: 44%; Stabilty [16]: Unstable

Further lines, with some results ahead:

Row | pIC50 [1] | half-life [2] | AUC at 24 h [3] | pIC50 [4] | pIC50 [5] | SMILES | other results
6 | > 7.00 |  |  |  | 8.30 | O=C(O)c1cccc(COc2ccc(Cl)cc2C(F)(F)F)n1 | 
7 | > 7.00 |  |  |  | 8.22 | N#Cc1cc(COc2ccc(Cl)cc2Cl)cc(C(=O)O)c1 | 
8 | > 7.00 | 4.6 h | 615 µM·h | 7.34 |  | O=C(O)c1cccc(COc2ccc(C(F)(F)F)cc2Cl)c1 | 
9 | > 7.00 |  |  |  |  | Clc1ccc(OCc2cccc(-c3nnn[nH]3)c2)c(Cl)c1Cl | pIC50 [17]: 8.22
